The test system of this assay is BDF1 mice, s.c. Lewis lung carcinoma, T/C %. The experiment in a line: NCI In Vivo Anticancer Drug Screen. Data for tumor model Lewis Lung Carcinoma (subcutaneous) in B6D2F1 (BDF1) mice. The method, boiled down:
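Transplanted tumors grown in mice; compound vs vehicle dosing; endpoint survival or tumor size; ratio T/C.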

The mark [1] stands for this setting: endpoint: median survival time, dose: 3.12 mg/kg/injection, schedule: Q01DX009 (ip), vehicle: Klucel (hydroxypropylcellulose) (HPC), higher = longer survival.
[2] abbreviates: endpoint: median survival time, dose: 12.5 mg/kg/injection, schedule: Q01DX009 (ip), vehicle: Klucel (hydroxypropylcellulose) (HPC), higher = longer survival.
The mark [3] stands for this setting: endpoint: median survival time, dose: 25.0 mg/kg/injection, schedule: Q01DX009 (ip), vehicle: Klucel (hydroxypropylcellulose) (HPC), higher = longer survival.

Several values for one entry are separate records, joined by “and”; a condition that tells them apart may be missing. Equal values may be shown once. Inconclusive results are not listed.

In the case of `Cc1c(N)nc([C@H](CC(N)=O)NC[C@H](N)C(N)=O)nc1C(=O)N[C@H](C(=O)N[C@H](C)[C@@H](O)[C@H](C)C(=O)N[C@H](C(=O)NCCc1nc(-c2nc(C(=O)NCCC[S+](C)C)cs2)cs1)[C@@H](C)O)C(OC1OC(CO)C(O)C(O)C1OC1OC(CO)C(O)C(OC(N)=O)C1O)c1cnc[nH]1` (some centres not stated), the T/C by setting is: (endpoint: mean survival time, dose: 4.0 mg/kg/injection, schedule: Q01DX009 (ip), vehicle: saline, higher = longer survival) 111 % of control; (endpoint: mean survival time, dose: 8.0 mg/kg/injection, schedule: Q01DX009 (ip), vehicle: saline, higher = longer survival) 102 % of control; (endpoint: mean survival time, dose: 12.0 mg/kg/injection, schedule: Q01DX009 (ip), vehicle: saline, higher = longer survival) 107 % of control; (endpoint: median survival time, dose: 1.0 mg/kg/injection, schedule: Q01DX009 (ip), vehicle: water, higher = longer survival) 90 % of control; (endpoint: median survival time, dose: 1.7 mg/kg/injection, schedule: Q01DX009 (ip), vehicle: water, higher = longer survival) 94 % of control; (endpoint: median survival time, dose: 2.0 mg/kg/injection, schedule: Q01DX009 (ip), vehicle: saline, higher = longer survival) 107 % of control. The T/C (endpoint: median survival time, dose: 2.0 mg/kg/injection, schedule: Q01DX009 (ip), vehicle: water, higher = longer survival) was 112 % of control; the T/C (endpoint: median survival time, dose: 2.9 mg/kg/injection, schedule: Q01DX009 (ip), vehicle: water, higher = longer survival) is 94 % of control; the T/C (endpoint: median survival time, dose: 3.12 mg/kg/injection, schedule: Q04DX003 (sc), vehicle: saline, higher = longer survival) is 90 % of control and 92 % of control; the T/C (endpoint: median survival time, dose: 4.0 mg/kg/injection, schedule: Q01DX009 (ip), vehicle: water, higher = longer survival) was 94 % of control and 118 % of control; the T/C (endpoint: median survival time, dose: 4.0 mg/kg/injection, schedule: Q04DX003 (ip), vehicle: saline, higher = longer survival) is 96 % of control and 110 % of control; the T/C (endpoint: median survival time, dose: 4.8 mg/kg/injection, schedule: Q01DX009 (ip), vehicle: water, higher = longer survival) is 118 % of control. The T/C reads like this: (endpoint: median survival time, dose: 6.25 mg/kg/injection, schedule: Q04DX003 (sc), vehicle: saline, higher = longer survival) 96 % of control; (endpoint: median survival time, dose: 8.0 mg/kg/injection, schedule: Q01DX009 (ip), vehicle: water, higher = longer survival) 102 % of control and 112 % of control; (endpoint: median survival time, dose: 8.0 mg/kg/injection, schedule: Q04DX003 (ip), vehicle: saline, higher = longer survival) 96 % of control and 114 % of control; (endpoint: median survival time, dose: 12.0 mg/kg/injection, schedule: Q01DX009 (ip), vehicle: saline, higher = longer survival) 100 % of control; (endpoint: median survival time, dose: 12.5 mg/kg/injection, schedule: Q04DX003 (sc), vehicle: saline, higher = longer survival) 102 % of control and 108 % of control; (endpoint: median survival time, dose: 16.0 mg/kg/injection, schedule: Q04DX003 (ip), vehicle: saline, higher = longer survival) 84 % of control and 112 % of control. In addition, the T/C (endpoint: median survival time, dose: 22.2 mg/kg/injection, schedule: Q01DX009 (ip), vehicle: water, higher = longer survival) is 82 % of control; the T/C (endpoint: median survival time, dose: 25.0 mg/kg/injection, schedule: Q04DX003 (sc), vehicle: saline, higher = longer survival) was 98 % of control; the T/C (endpoint: median survival time, dose: 32.0 mg/kg/injection, schedule: Q04DX003 (ip), vehicle: saline, higher = longer survival) was 50 % of control and 108 % of control; the T/C (endpoint: median survival time, dose: 50.0 mg/kg/injection, schedule: Q04DX003 (sc), vehicle: saline, higher = longer survival) is 117 % of control and 118 % of control; the T/C (endpoint: median survival time, dose: 64.0 mg/kg/injection, schedule: Q04DX003 (ip), vehicle: saline, higher = longer survival) is 37 % of control and 97 % of control; the T/C (endpoint: median survival time, dose: 100.0 mg/kg/injection, schedule: Q04DX003 (sc), vehicle: saline, higher = longer survival) was 116 % of control and 124 % of control. The T/C was 71 % of control (endpoint: median tumor weight (est.), dose: 2.0 mg/kg/injection, schedule: Q01DX009 (ip), vehicle: saline, higher = larger tumour); 34 % of control (endpoint: median tumor weight (est.), dose: 2.0 mg/kg/injection, schedule: Q01DX009 (ip), vehicle: water, higher = larger tumour); 77 % of control (endpoint: median tumor weight (est.), dose: 4.0 mg/kg/injection, schedule: Q01DX009 (ip), vehicle: saline, higher = larger tumour); 24 % of control (endpoint: median tumor weight (est.), dose: 4.0 mg/kg/injection, schedule: Q01DX009 (ip), vehicle: water, higher = larger tumour); 34 % of control (endpoint: median tumor weight (est.), dose: 8.0 mg/kg/injection, schedule: Q01DX009 (ip), vehicle: saline, higher = larger tumour); 8 % of control (endpoint: median tumor weight (est.), dose: 8.0 mg/kg/injection, schedule: Q01DX009 (ip), vehicle: water, higher = larger tumour). The T/C (endpoint: median tumor weight (est.), dose: 16.0 mg/kg/injection, schedule: Q01DX009 (ip), vehicle: saline, higher = larger tumour) is 26 % of control.

With `COc1cc2c[n+](C)c3c4cc5c(cc4ccc3c2cc1OC)OCO5` (tested in a mixture with another compound), the T/C is 92 % of control (endpoint: median survival time, dose: 5.0 mg/kg/injection, schedule: Q01DX009 (ip), vehicle: saline, higher = longer survival); 96 % of control (endpoint: median survival time, dose: 10.0 mg/kg/injection, schedule: Q01DX009 (ip), vehicle: saline, higher = longer survival); 86 % of control (endpoint: median survival time, dose: 20.0 mg/kg/injection, schedule: Q01DX009 (ip), vehicle: saline, higher = longer survival).

On to `CCN(CC)Cc1cc(Nc2c3ccccc3nc3cc(Cl)ccc23)ccc1O`, for which, under “endpoint: mean tumor weight, dose: 40.0 mg/kg/injection, schedule: Q01DX011 (ip), vehicle: other, higher = larger tumour”, the T/C is 48 % of control.

With `COc1ccc(NC(=O)N(CCCl)N=O)cc1OC`, the T/C (endpoint: median survival time, dose: 1.56 mg/kg/injection, schedule: Q01DX009 (ip), vehicle: Klucel (hydroxypropylcellulose) (HPC), higher = longer survival) was 97 % of control; the T/C under setting [1] was 100 % of control; the T/C (endpoint: median survival time, dose: 6.25 mg/kg/injection, schedule: Q01DX009 (ip), vehicle: Klucel (hydroxypropylcellulose) (HPC), higher = longer survival) was 106 % of control; the T/C under setting [2] is 101 % of control; the T/C under setting [3] is 107 % of control.

`CC1=C2C(=C[C@@](C)(CO)[C@@H]2O)C(=O)[C@](C)(O)C12CC2`: the T/C (endpoint: mean tumor weight, dose: 0.05 mg/kg/injection, schedule: Q01DX011 (ip), vehicle: saline, higher = larger tumour) was 113 % of control; the T/C (endpoint: mean tumor weight, dose: 0.1 mg/kg/injection, schedule: Q01DX011 (ip), vehicle: saline, higher = larger tumour) was 102 % of control; the T/C (endpoint: mean tumor weight, dose: 0.2 mg/kg/injection, schedule: Q01DX011 (ip), vehicle: saline, higher = larger tumour) was 92 % of control; the T/C (endpoint: mean tumor weight, dose: 0.4 mg/kg/injection, schedule: Q01DX011 (ip), vehicle: saline, higher = larger tumour) was 19 % of control and 41 % of control; the T/C (endpoint: mean tumor weight, dose: 0.6 mg/kg/injection, schedule: Q01DX011 (ip), vehicle: saline, higher = larger tumour) is 20 % of control.

Regarding `C[C@]12CC[C@H]3[C@@H](CC[C@]4(O)C[C@@H](O)CC[C@]34C=O)[C@@]1(O)CC[C@@H]2C1=CC(=O)OC1`, the T/C runs as follows: under setting [1], 87 % of control; under setting [2], 113 % of control; under setting [3], 116 % of control.

On to `CC(C)C(=O)[O][Sn]([c]1ccccc1)([c]1ccccc1)[c]1ccccc1`, for which the T/C by setting is: (endpoint: median survival time, dose: 3.0 mg/kg/injection, schedule: Q01DX009 (ip), vehicle: saline with Tween-80, higher = longer survival) 110 % of control; (endpoint: median survival time, dose: 6.0 mg/kg/injection, schedule: Q01DX009 (ip), vehicle: saline with Tween-80, higher = longer survival) 106 % of control; (endpoint: median survival time, dose: 12.0 mg/kg/injection, schedule: Q01DX009 (ip), vehicle: saline with Tween-80, higher = longer survival) 97 % of control.

As to `IP(c1ccccc1)(c1ccccc1)(c1ccccc1)N1C2CCCCC21` (configuration not stated), the T/C reads like this: (endpoint: median survival time, dose: 0.3 mg/kg/injection, schedule: Q01DX009 (ip), vehicle: Klucel (hydroxypropylcellulose) (HPC), higher = longer survival) 94 % of control; (endpoint: median survival time, dose: 0.6 mg/kg/injection, schedule: Q01DX009 (ip), vehicle: Klucel (hydroxypropylcellulose) (HPC), higher = longer survival) 103 % of control; (endpoint: median survival time, dose: 38.0 micrograms/kg/injection, schedule: Q01DX009 (ip), vehicle: Klucel (hydroxypropylcellulose) (HPC), higher = longer survival) 94 % of control; (endpoint: median survival time, dose: 75.0 micrograms/kg/injection, schedule: Q01DX009 (ip), vehicle: Klucel (hydroxypropylcellulose) (HPC), higher = longer survival) 91 % of control; (endpoint: median survival time, dose: 150.0 micrograms/kg/injection, schedule: Q01DX009 (ip), vehicle: Klucel (hydroxypropylcellulose) (HPC), higher = longer survival) 104 % of control; (endpoint: median survival time, dose: 300.0 micrograms/kg/injection, schedule: Q01DX009 (ip), vehicle: Klucel (hydroxypropylcellulose) (HPC), higher = longer survival) 91 % of control.

With `NC(=O)N(CCCl)N=O`, the T/C is 80 % of control (endpoint: mean tumor weight, dose: 0.63 mg/kg/injection, schedule: Q01DX011 (ip), vehicle: saline, higher = larger tumour); 53 % of control (endpoint: mean tumor weight, dose: 1.25 mg/kg/injection, schedule: Q01DX011 (ip), vehicle: saline, higher = larger tumour); 10 % of control (endpoint: mean tumor weight, dose: 2.5 mg/kg/injection, schedule: Q01DX011 (ip), vehicle: saline, higher = larger tumour); 120 % of control (endpoint: median survival time, dose: 1.0 mg/kg/injection, schedule: Q01DX001 (ip), vehicle: saline + alcohol, higher = longer survival).

`Clc1ncnc2c1ncn2C1CCCO1` (configuration not stated): the T/C was 91 % of control (endpoint: mean tumor weight, dose: 25.0 mg/kg/injection, schedule: Q01DX011 (ip), vehicle: other, higher = larger tumour); 108 % of control (endpoint: mean tumor weight, dose: 50.0 mg/kg/injection, schedule: Q01DX011 (ip), vehicle: other, higher = larger tumour); 81 % of control (endpoint: mean tumor weight, dose: 100.0 mg/kg/injection, schedule: Q01DX011 (ip), vehicle: other, higher = larger tumour); 51 % of control and 62 % of control (endpoint: mean tumor weight, dose: 200.0 mg/kg/injection, schedule: Q01DX011 (ip), vehicle: other, higher = larger tumour); 57 % of control (endpoint: mean tumor weight, dose: 400.0 mg/kg/injection, schedule: Q01DX011 (ip), vehicle: other, higher = larger tumour); 42 % of control (endpoint: mean tumor weight, dose: 600.0 mg/kg/injection, schedule: Q01DX011 (ip), vehicle: other, higher = larger tumour).

The record behind these values is PubChem BioAssay AID270 (DTP/NCI, 2004).
